Results from patent US20210261495A1, “COMPOSITIONS AND METHODS OF USING ITACONIC ACID DERIVATIVES” (ERGON PHARMACEUTICALS, LLC, priority 2018, published 2021).

Each compound was assayed on C6-IRG1-9 rat glioma cells (assay: C6-IRG1-9 rat glioma cell proliferation, CyQuant). Conditions: various concentrations, 48 hrs.
Assay type: cell-based
Procedure: Tumor Cell Proliferation Assay. This assay was used to assess the anti-tumor properties of a therapeutic agent in vitro. In a typical proliferation assay, cells were cultured to near confluency in the appropriate media. Subsequently, the cells were trypsinized and plated onto 96-well plates at 2,000 or 5,000 cell per well. The cells were cultured for 48 to 96 hours in the presence or absence of the therapeutic agent. Cell proliferation was then determined using spectrophotometry (MTT assay, BrdU assay) or fluorimetry (Cyquant assay).
Inhibition of C6-IRG1-9 Rat Glioma cell proliferation. C6-IRG1-9 cells are rat C6 glioma cells that have been transfected to overexpress IRG1. Overexpression of IRG1 is maintained by culturing the cells in DMEM media containing 0.55 μg/mL puromycin. For the proliferation assays, the cells were plated onto a 96-well plate at a density of 2,000 cells/well. The cells were allowed to adhere overnight; they were subsequently treated with various concentrations of compounds of Formula (2) for 48 hrs. At the end of the incubation period, the number of cells is assessed using the CyQuant Cell Proliferation kit (Thermo Fisher) according to the manufacturer's instructions. The results, shown in FIG. 3, indicate that compounds of Formula (2) are able to reduce or abrogate growth of C6-IRG1-9 cells. In FIG. 3, cell proliferation is expressed as % Untreated Control, defined as: […]
where t is the number of cells present in a treated well at the end of the incubation period, c is the number of cells present in an untreated well at the end of the incubation period, and s is the initial number of cells in the wells prior to initiation of treatment.

Compound | proliferation of C6-IRG1-9 rat glioma cells
O=C(O)CC(=Cc1ccc(F)cc1)C(=O)O [Compound (5), 2-[(4-fluorophenyl)methylidene]butanedioic acid] | inhibition of proliferation
O=C(O)CC(=Cc1ccccc1)C(=O)O [(4), 2-(phenylmethylidene)butanedioic acid] | inhibition of proliferation
C=CCC(C(=O)O)/C(=C/c1ccc(F)cc1)C(=O)O (stereo not shown) [(7), 2-[(4-flurophenyl)methylidene]-3-(prop-2-ene-1-yl)butanedioic acid] | inhibition of proliferation
CC(C)=C(CC(=O)O)C(=O)O [(3), 2-(propan-2-ylidene)butanedioic acid] | inhibition of proliferation
